Test results from US9375421B2, “Pharmaceutical intervention for treating an apraxia of speech in children” (Gilrose Pharmaceuticals, LLC, priority 2011, dated 2016).

Assays:
[1] = system: children with apraxia of speech; experiment: Speech and language assessment of children with apraxia of speech before and after a psychostimulant dose (case examples); assay type: in vivo, human
From the text: Assessment of the verbal ability of a subject can include but is not limited to measures of all the domains described herein: nonspeech oral-motor, speech production, prosody, voice, speech perception, language, and, for older children, linguistic/literacy skills. Of these, (a) inconsistent errors on consonants and vowels in repeated productions of syllables or words, (b) lengthened and disrupted coarticulatory transitions between sounds and syllables, (c) inappropriate prosody, especially in the realization of lexical or phrasal stress; (d) the inability to see a new word and to have the ability to identify and sequence in time and space the sounds not only by themselves but in relationship to one another to be able to produce to transform from a symbol, orthographic to sound representation but to do it according to the rules of language knowing where to divide the written symbols into units; (e) the inability to not only transform into sounds, but sounds in relationship in terms of speed and volume to have that word in the context have that meaning that the author of the written word wanted to convey. The cultural and linguistic background of each subject may optionally be assessed.
When treating a child who is incapable of communication, the child is tested with respect to language skills as well as visual-spatial comprehension skills. For example, a child may be asked to pronounce a few single syllable words, such as “ma, ma” “ba, ba” or to described a picture or read a few words. At the same time, the child's body motions and emotional interactions with other people are observed.
For example, an improvement in a subject may include but is not limited to, an increase in the number of correct phonemes when speaking, a more normal time spent enunciating words, the number of times the last consonant of a word is used correctly, the proper sequencing of words and events, appropriate sound intensity.
Depending where the patient is on the apraxia pyramid, for example vocalization, words, prosody, the number of words in the sentence, the number or types of words in the sentence, the grammar syntax, prosody, measuring the child to his/her previous ability 20-30 minutes ago in addition to medication.

[2] = system: children with good nonverbal development not functioning well with reading and language skills; experiment: Three minute reading test before and after administering the medicine (FIG. 2 and FIG. 3); assay type: in vivo, human; details: most of the nine children; 5 mg; pre- versus after administering
Description: FIG. 2 is a comparison of the reading abilities of a group of children with a various diagnosed symptoms between pre-treatment and after-treatment with one dosage of 5-7.5 mg of methylphenidate.
FIG. 3 is a comparison of the reading abilities of another group of children with a various diagnosed symptoms between pre-treatment and after-treatment with one dosage of 5-7.5 mg of methylphenidate.
Metrics for quantitative assessment of the language ability include words per minute, three minute reading test, sentence complexity such as length in words, complexity of construction, etc. The number of correctly read syllables minuses the number of mistakes divided by the months of reading training may be used to assess the language ability development.
In reference to FIG. 2 and FIG. 3. […] They were tested for three minute reading before and after administering the medicine. The mistakes in pronouncing syllables were counted. The correct pronunciation ratios (divided by the total number of syllables read) were compared between the pre-administering the drug and after administering the drug. […] Most of them had least 40% improvement.

Row | Structure (SMILES) | speech ability after dose (Example 1) ([1]; 11 year autistic boy, 10 mg tablets, thirty minutes after dose) | speech improvement (Example 9A, third visit) ([1]; Participant 9A, 5 mg/day, after a month) | comprehension (Example 9A, fourth visit) ([1]; Participant 9A, 10 mg/day, about a month later) | reading ability after dose (Example 5) ([1]; child with dyslexia, 10 mg, half an hour later) | speech ability after dose (Example 7) ([1]; child, chromosome 15 duplication, 2.5 mg, thirty minutes later) | speech and motor ability after dose (Example 8) ([1]; child, 5 mg, after 30 minutes) | speech ability after dose (Example 2) ([1]; child, one dosage of 5 mg, half an hour later) | follow up on speech after repeated dosing (Example 7) ([1]; same child, 2.5 mg a day for two to three months) | improvement of correct pronunciation ratio, three minute reading [2] [%] | speech and language (Example 9A, fifth visit) ([1]; Participant 9A, 10 mg/day after the methylphenidate regimen, about two weeks later) | speech and comprehension (Example 9B) ([1]; Participant 9B, same regimen as 9A (methylphenidate 5 then 10 mg/day, then Focalin 10 mg/day))
1 | COC(=O)C(c1ccccc1)C1CCCCN1 (centres unmarked) [methylphenidate] | able to imitate “ma ma ma” | no significant improvement in speech | able to understand the story line of a children's book | able to read a sentence with smooth pronunciations | able to make sounds of “ma mi”, mimic “bye”, “bye” and babble with sounds | able to repeat two syllable words | able to follow instructions to mimic the sounds “ma” “ma” “ga” “ga” | good progress in speaking sounds | ≥ 40 | – | –
2 | COC(=O)[C@H](c1ccccc1)[C@H]1CCCCN1 [Focalin®, dextro-threo-methylphenidate] | – | – | – | – | – | – | – | – | – | able to answer questions about their daily life in clear speech and language | an improvement in speech and comprehension
